Where two headings read alike, the source gives them in different places.
Tests used:
AuroraA-TPX2 = biological target: T1, AuroraA-TPX2 (Homo sapiens, UniProt O14965); test: AuroraA-TPX2 Homogeneous Time Resolved Fluorescent (HTRF) kinase assay; format: biochemical; conditions: average, read-out: AurA/TP X2_ IC50_IP (Avg)
T1 construct: 20 µL of AuroraA-TPX2 KD GST; GST
T1 sequence (O14965 133-383 limits assumed): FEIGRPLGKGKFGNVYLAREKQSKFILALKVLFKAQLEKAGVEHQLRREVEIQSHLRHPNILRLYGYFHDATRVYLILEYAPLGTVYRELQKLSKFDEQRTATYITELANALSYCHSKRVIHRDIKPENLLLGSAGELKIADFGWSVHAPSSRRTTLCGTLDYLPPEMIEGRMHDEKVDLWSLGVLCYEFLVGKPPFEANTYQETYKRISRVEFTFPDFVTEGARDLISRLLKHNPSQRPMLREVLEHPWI
T1 sequence (Q9ULW0 1-43 partner limits assumed): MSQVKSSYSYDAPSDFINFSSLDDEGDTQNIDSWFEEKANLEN
Method: AuroraA-TPX2-Homogeneous Time Resolved Fluorescent (HTRF) Kinase Assay:
The Aurora-A HTRF assay begins with Aurora-A in the presence of ATP phosphorylating the biotinylated peptide PLK. The reaction incubates for about 120 min. Detection reagents are added to quench the reaction. These agents stop the reaction by diluting out the enzyme and chelating the metals due to the presence of EDTA. After addition, the assay is incubated overnight to allow the detection reagents to equilibrate.
The final concentration of PLK is about 1 µM. […] Buffer conditions are as follows: 60mM HEPES pH 7.5, 25mM NaCl, 10mM MgCl, 2mM DTT, 0.05% BSA.
(§1) The assay is quenched and stopped with 160 µL, of detection reagent. Detection reagents are as follows: Buffer made of 50mM Tris, pH 7.5, 100mM NaCl, 3mM EDTA, 0.05% BSA, 0.1% Tween20. Added to this buffer prior to reading is Steptavidin allophycocyanin (SA-APC) at a final conc in the assay of 0.0005 mg/mL, and europilated anti-phosphoPLK Ab (Eu-anti-PLK) at a final conc of 0.02 nM.
The assay plate is read in either a Discovery or a RubyStar. The eu-anti-PLK is excited at 320 nm and emits at 615 nm to excite the SA-APC which in turn emits at 655 nm.

AuroraB = biological target: T2, AuroraB (Homo sapiens, UniProt Q96GD4); test: AuroraB Homogeneous Time Resolved Fluorescent (HTRF) kinase assay; format: biochemical; conditions: average, read-out: AurB_ _IC50_IP (Avg)
T2 construct: 20 µL of AuroraB FL His; His
T2 sequence (Q96GD4 whole entry): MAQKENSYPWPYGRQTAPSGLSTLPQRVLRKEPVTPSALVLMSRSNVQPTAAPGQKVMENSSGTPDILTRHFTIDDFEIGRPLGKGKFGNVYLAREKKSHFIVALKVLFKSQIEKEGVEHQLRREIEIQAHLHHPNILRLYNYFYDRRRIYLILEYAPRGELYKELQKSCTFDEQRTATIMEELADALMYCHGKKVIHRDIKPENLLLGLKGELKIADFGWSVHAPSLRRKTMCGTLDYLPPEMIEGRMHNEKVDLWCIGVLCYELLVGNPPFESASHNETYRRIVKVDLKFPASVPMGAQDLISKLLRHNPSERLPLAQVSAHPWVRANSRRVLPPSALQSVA
Method: AuroraB-Homogeneous Time Resolved Fluorescent (HTRF) Kinase Assay:
The AuroraB HTRF assay begins with AuroraB in the presence of ATP phosphorylating the biotinylated peptide Histone H3. The reaction incubates for about 90 min. the reaction is quentched by addition of detection reagents, which stop the reaction by diluting out the enzyme and chelating the metals due to the presence of EDTA. After addition, the assay is incubated for about 60 min to allow detection reagents to equilibrate.
The AuroraB HTRF assay comprises 1 µL of compound in 100% DMSO, 20 µL of ATP and biotinylated Histone H3, and 20 µL of AuroraB FL His for a final volume of 41 µL. The final concentration of Histone H3 is 0.1 µM. The final concentration of ATP is 23 µM (Km(app) = 23 µM+/-2.6) and the final concentration of AuroraB is 400 pM. Buffer conditions are as follows: 50mM HEPES pH 7.5, 5mM NaCl, 0.5mM MgCl, 0.5mM MnCl, 2mM DTT, 0.05% BSA.
as §1, with “µL” for “µL,”, “0.001” for “0.0005”, “anti-phosphoHistoneH3” for “anti-phosphoPLK”, “(Eu-anti-HisH3)” for “(Eu-anti-PLK)”, “0.064” for “0.02”
The assay plate is read in either a Discovery or a RubyStar. The eu-anti-HisH3 is excited at 320 nm and emits at 615 nm to excite the SA-APC which in turn emits at 655 nm. The ratio of SA-APC at 655 nm (excited due to close proximity to the Eu-anti-HisH3 because of phosphorylation of the peptide) to free Eu-anti-HisH3 at 615 nm will give substrate phosphorylation.

[1] = given as numbers, unit inferred

Compound	IC50 (AuroraA-TPX2; given as class symbols)	IC50 (AuroraB; given as class symbols)	IC50 (AuroraA-TPX2; [1])	IC50 (AuroraB; [1])
c1ccc(-c2nnc(Nc3ccc(Oc4ncccc4-c4ccnc(NCCCN5CCC5)n4)cc3)c3ccccc23)cc1 [compound 295, N-(4-((3-(2-((3-(1-azetidinyl)propyl)amino)-4-pyrimidinyl)-2-pyridinyl)oxy)phenyl)-4-phenyl-1-phthalazinamine]	100 to 500 nM	≤ 100 nM	–	–
c1ccc(-c2nnc(Nc3ncc(Oc4ncccc4-c4ccncc4)cn3)c3ccccc23)cc1 [compound 311, N-(5-(3,4'-bipyridin-2-yloxy)-2-pyrimidinyl)-4-phenyl-1-phthalazinamine]	500 to 2500 nM	500 to 2500 nM	–	–
Nc1n[nH]cc1-c1cccnc1Oc1ccc(Nc2nnc(-c3ccccc3)c3ccccc23)cc1F [compound 314, N-(4-((3-(3-amino-1H-pyrazol-4-yl)-2-pyridinyl)oxy)-3-fluorophenyl)-4-phenyl-1-phthalazinamine]	–	–	4.5 nM	2.4 nM
CS(=O)(=O)c1cccc(-c2nnc(Nc3ccc(Oc4ncccc4-c4ccnc(N)n4)cc3)c3ccccc23)c1 [compound 316, N-(4-((3-(2-amino-4-pyrimidinyl)-2-pyridinyl)oxy)phenyl)-4-(3-(methylsulfonyl)phenyl)-1-phthalazinamine]	≤ 100 nM	≤ 100 nM	–	–
COc1cccc(-c2nnc(Nc3ccc(Oc4ncccc4-c4c[nH]nc4N)cc3)c3ccccc23)c1 [compound 317, N-(4-((3-(3-amino-1H-pyrazol-4-yl)-2-pyridinyl)oxy)phenyl)-4-(3-(methyloxy)phenyl)-1-phthalazinamine]	≤ 100 nM	≤ 100 nM	–	–
CS(=O)(=O)c1cccc(-c2nnc(Nc3ccc(Oc4ncccc4-c4ccnc(N)n4)nc3)c3ccccc23)c1 [compound 318, N-(6-((3-(2-amino-4-pyrimidinyl)-2-pyridinyl)oxy)-3-pyridinyl)-4-(3-(methylsulfonyl)phenyl)-1-phthalazinamine]	–	–	23.8 nM	5.6 nM
COc1ccc(-c2nnc(Nc3ccc(Oc4ncccc4-c4ccnc(N)n4)nc3)c3ccccc23)cc1 [compound 319, N-(6-((3-(2-amino-4-pyrimidinyl)-2-pyridinyl)oxy)-3-pyridinyl)-4-(4-(methyloxy)phenyl)-1-phthalazinamine]	≤ 100 nM	≤ 100 nM	–	–
COc1ccc(-c2nnc(Nc3ccc(Oc4ncccc4-c4ccnc(N)n4)cc3)c3ccccc23)cc1 [compound 320, N-(4-((3-(2-amino-4-pyrimidinyl)-2-pyridinyl)oxy)phenyl)-4-(4-(methyloxy)phenyl)-1-phthalazinamine]	≤ 100 nM	≤ 100 nM	–	–
CCOc1ccc(-c2nnc(Nc3ccc(Oc4ncccc4-c4ccnc(N)n4)cc3)c3ccccc23)cc1 [compound 321, N-(4-((3-(2-amino-4-pyrimidinyl)-2-pyridinyl)oxy)phenyl)-4-(4-(ethyloxy)phenyl)-1-phthalazinamine]	≤ 100 nM	≤ 100 nM	–	–
CCOc1ccccc1-c1nnc(Nc2ccc(Oc3ncccc3-c3ccnc(N)n3)cc2)c2ccccc12 [compound 322, N-(4-((3-(2-amino-4-pyrimidinyl)-2-pyridinyl)oxy)phenyl)-4-(2-(ethyloxy)phenyl)-1-phthalazinamine]	≤ 100 nM	≤ 100 nM	–	–
CN1CCN(CCCNc2nccc(-c3cccnc3Oc3ccc(Nc4nnc(-c5ccccn5)c5ccccc45)cc3)n2)CC1 [compound 323, N-(4-((3-(2-((3-(4-methyl-1-piperazinyl)propyl)amino)-4-pyrimidinyl)-2-pyridinyl)oxy)phenyl)-4-(2-pyridinyl)-1-phthalazinamine]	100 to 500 nM	≤ 100 nM	–	–
CN(C)C1CCN(CCCNc2nccc(-c3cccnc3Oc3ccc(Nc4nnc(-c5ccccc5)c5ccccc45)cc3)n2)C1 (stereo not drawn) [compound 324, N-(4-((3-(2-((3-(3-(dimethylamino)-1-pyrrolidinyl)propyl)amino)-4-pyrimidinyl)-2-pyridinyl)oxy)phenyl)-4-phenyl-1-phthalazinamine]	≤ 100 nM	≤ 100 nM	–	–
CC1CN(CCCNc2nccc(-c3cccnc3Oc3ccc(Nc4nnc(-c5ccccc5)c5ccccc45)cc3)n2)CC(C)O1 (stereo not drawn) [compound 326, N-(4-((3-(2-((3-(2,6-dimethyl-4-morpholinyl)propyl)amino)-4-pyrimidinyl)-2-pyridinyl)oxy)phenyl)-4-phenyl-1-phthalazinamine]	≤ 100 nM	≤ 100 nM	–	–

Results, then the compound that gave them:

IC50 (AuroraA-TPX2; given as class symbols)	IC50 (AuroraB; given as class symbols)	IC50 (AuroraA-TPX2; [1])	IC50 (AuroraB; [1])	Compound
≤ 100 nM	≤ 100 nM	–	–	COc1cccc(-c2nnc(Nc3ccc(Oc4ncccc4-c4ccnc(N)n4)cc3)c3ccccc23)n1 [compound 292, N-(4-((3-(2-amino-4-pyrimidinyl)-2-pyridinyl)oxy)phenyl)-4-(6-(methyloxy)-2-pyridinyl)-1-phthalazinamine]
≤ 100 nM	≤ 100 nM	–	–	COc1cccc(-c2nnc(Nc3ccc(Oc4ncccc4-c4ccnc(N)n4)nc3)c3ccccc23)n1 [compound 293, N-(6-((3-(2-amino-4-pyrimidinyl)-2-pyridinyl)oxy)-3-pyridinyl)-4-(6-(methyloxy)-2-pyridinyl)-1-phthalazinamine]
≤ 100 nM	≤ 100 nM	–	–	CC(=O)OCc1cccc(-c2nnc(Nc3ccc(Oc4ncccc4-c4ccnc(N)n4)cc3)c3ccccc23)n1 [compound 296, (6-(4-((4-((3-(2-amino-4-pyrimidinyl)-2-pyridinyl)oxy)phenyl)amino)-1-phthalazinyl)-2-pyridinyl)methyl acetate]
≤ 100 nM	≤ 100 nM	–	–	Nc1nccc(-c2cccnc2Oc2ccc(Nc3nnc(-c4cccc(CO)n4)c4ccccc34)cc2)n1 [compound 297, (6-(4-((4-((3-(2-amino-4-pyrimidinyl)-2-pyridinyl)oxy)phenyl)amino)-1-phthalazinyl)-2-pyridinyl)methanol]
≤ 100 nM	≤ 100 nM	–	–	ONc1nccc(-c2cccnc2Oc2ccc(Nc3nnc(-c4ccccc4)c4ccccc34)cc2)n1 [compound 310, N-(4-((3-(2-(hydroxyamino)-4-pyrimidinyl)-2-pyridinyl)oxy)phenyl)-4-phenyl-1-phthalazinamine]
≤ 100 nM	≤ 100 nM	–	–	Cc1csc(-c2nnc(Nc3ccc(Oc4ncccc4-c4c[nH]nc4N)c(F)c3)c3ccccc23)n1 [compound 312, N-(4-((3-(3-amino-1H-pyrazol-4-yl)-2-pyridinyl)oxy)-3-fluorophenyl)-4-(4-methyl-1,3-thiazol-2-yl)-1-phthalazinamine]
≤ 100 nM	≤ 100 nM	–	–	Nc1nccc(-c2cccnc2Oc2ccc(Nc3nnc(-c4ccccc4)c4ccsc34)cn2)n1 [compound 313, N-(6-((3-(2-amino-4-pyrimidinyl)-2-pyridinyl)oxy)-3-pyridinyl)-4-phenylthieno[2,3-d]pyridazin-7-amine]
≤ 100 nM	≤ 100 nM	–	–	Nc1nccc(-c2cccnc2Oc2ccc(Nc3nnc(-c4ccc(Cl)cc4)c4ccccc34)cn2)n1 [compound 315, N-(6-((3-(2-amino-4-pyrimidinyl)-2-pyridinyl)oxy)-3-pyridinyl)-4-(4-chlorophenyl)-1-phthalazinamine]

From patent publication EP1984353B1, “AURORA KINASE MODULATORS AND METHOD OF USE” (Amgen, Inc, priority 2006, dated 2007)
